How the values were obtained:
Assay type in all cases: in vivo
[1] = tested on: Diamond Back Moth (Plutella xylostella); experiment: Insecticidal effect on diamond back moth (Test Example 1): egg-bearing Chinese cabbage seedling immersed in 50 ppm liquid chemical
Procedure: Adult diamond back moths were released and allowed to oviposit on a Chinese cabbage seedling. Two days after the release, the seedling having the eggs deposited thereon was immersed for about 30 seconds in a liquid chemical prepared by diluting a preparation containing each compound listed in Table 1 or 2 as an active ingredient to adjust the concentration to 50 ppm. After air-dryness, it was allowed to stand in a room thermostated at 25° C. Six days after the immersion, the hatched insects were counted. The mortality was calculated according to the following equation and the insecticidal effect was judged according to the criterion shown below. The test was carried out with triplicate groups of 10 insects. [formula]

[2] = tested on: Common Cutworm (Spodoptera litura); experiment: Insecticidal effect on common cutworm (Test Example 2): cabbage leaf piece immersed in 50 ppm liquid chemical; details: common cutworm (Spodoptera litura) second-instar larvae, 8 days after inoculation, 25° C.
Procedure: A piece of cabbage leaf (cultivar: Shikidori) was immersed for about 30 seconds in a liquid chemical prepared by diluting a preparation containing each compound listed in Table 1 or 2 as an active ingredient to adjust the concentration to 50 ppm. After air-dryness, it was placed in a plastic Petri dish with a diameter of 9 cm and inoculated with second-instar larvae of common cutworm, after which the dish was closed and then allowed to stand in a room thermostated at 25° C. Eight days after the inoculation, the dead and alive were counted. The mortality was calculated according to the following equation and the insecticidal effect was judged according to the criterion shown in Test Example 1. The test was carried out with triplicate groups of 10 insects. [formula]

[3] = tested on: Smaller Tea Tortrix (Adoxophyes sp.); experiment: Insecticidal effect on smaller tea tortrix (Test Example 3): tea leaves immersed in 50 ppm liquid chemical; details: smaller tea tortrix (Adoxophyes sp.) larvae, 8 days after inoculation, 25° C., humidity 70%
Procedure: Tea leaves were immersed for about 30 seconds in a liquid chemical prepared by diluting a preparation containing each compound listed in Table 1 or 2 as an active ingredient to adjust the concentration to 50 ppm. After air-dryness, the tea leaves were placed in a plastic Petri dish with a diameter of 9 cm and inoculated with larvae of smaller tea tortrix, after which the dish was allowed to stand in a room thermostated at 25° C. and having a humidity of 70%. Eight days after the inoculation, the dead and alive were counted and the insecticidal effect was judged according to the criterion shown in Test Example 1. The test was carried out with triplicate groups of 10 insects.

| SMILES | Insecticidal effect (mortality grade), Test Example 1 [1] | Insecticidal effect (mortality grade), Test Example 2 [2] | Insecticidal effect (mortality grade), Test Example 3 [3] |
| --- | --- | --- | --- |
| Cc1cc(C(F)(C(F)(F)F)C(F)(F)F)ccc1NC(=O)c1cccc(I)c1C(=O)N[C@@H](C)CS(=O)(=O)N[C@@H](C)C[S+](C)[O-] (stereo partly drawn) [1-148] | A (Mortality 100%) | A (Mortality 100%) | A (Mortality 100%) |
| CCNS(=O)(=O)CCCC(C)(C)NC(=O)c1c(I)cccc1C(=O)Nc1ccc(C(F)(C(F)(F)F)C(F)(F)F)cc1C [1-200] | A (Mortality 100%) | A (Mortality 100%) | A (Mortality 100%) |
| CNS(=O)(=O)CC(C)NC(=O)c1c(I)cccc1C(=O)Nc1ccc(C(F)(C(F)(F)F)C(F)(F)F)cc1C (stereo not drawn) [1-2] | A (Mortality 100%) | A (Mortality 100%) | A (Mortality 100%) |
| Cc1cc(C(F)(C(F)(F)F)C(F)(F)F)ccc1NC(=O)c1cccc(I)c1C(=O)NC(C)CS(=O)(=O)NCCS(C)(=O)=O (stereo not drawn) [1-77] | A (Mortality 100%) | A (Mortality 100%) | A (Mortality 100%) |
| Cc1cc(C(F)(C(F)(F)F)C(F)(F)F)ccc1NC(=O)c1cccc(I)c1C(=O)NC(C)CS(=O)(=O)N1CC[S+]([O-])CC1 (stereo not drawn) [1-56] | A (Mortality 100%) | A (Mortality 100%) | A (Mortality 100%) |
| Cc1cc(C(F)(C(F)(F)F)C(F)(F)F)ccc1NC(=O)c1cccc(I)c1C(=O)NC(C)CS(=O)(=O)NCc1ccc(C#N)cc1 (stereo not drawn) [1-37] | A (Mortality 100%) | A (Mortality 100%) | A (Mortality 100%) |
| Cc1cc(C(F)(C(F)(F)F)C(F)(F)F)ccc1NC(=O)c1cccc(I)c1C(=O)NC(C)CS(=O)(=O)Nc1ccc(F)cc1 (stereo not drawn) [1-110] | A (Mortality 100%) | E (Mortality less than 50%) | E (Mortality less than 50%) |
| Cc1cc(C(F)(C(F)(F)F)C(F)(F)F)ccc1NC(=O)c1cccc(I)c1C(=O)NC(C)CS(=O)(=O)NC(C)C (stereo not drawn) [1-8] | A (Mortality 100%) | A (Mortality 100%) | A (Mortality 100%) |
| CCN(CC)S(=O)(=O)CC(C)(C)NC(=O)c1c(I)cccc1C(=O)Nc1ccc(C(F)(F)C(F)(F)F)cc1C [1-302] | A (Mortality 100%) | A (Mortality 100%) | A (Mortality 100%) |
| Cc1cc(C(F)(C(F)(F)F)C(F)(F)F)ccc1NC(=O)c1cccc(I)c1C(=O)NC(C)CS(=O)(=O)NCc1ccc(SC(F)(F)F)cc1 (stereo not drawn) [1-38] | A (Mortality 100%) | A (Mortality 100%) | A (Mortality 100%) |
| COc1cccc(CNS(=O)(=O)CC(C)NC(=O)c2c(I)cccc2C(=O)Nc2ccc(C(F)(C(F)(F)F)C(F)(F)F)cc2C)c1 (stereo not drawn) [1-29] | A (Mortality 100%) | A (Mortality 100%) | A (Mortality 100%) |
| Cc1cc(C(F)(C(F)(F)F)C(F)(F)F)ccc1NC(=O)c1cccc(I)c1C(=O)NC(C)(C)CS(=O)(=O)NCCO [1-78] | A (Mortality 100%) | E (Mortality less than 50%) | A (Mortality 100%) |
| Cc1cc(C(F)(C(F)(F)F)C(F)(F)F)ccc1NC(=O)c1cccc(I)c1C(=O)NC(C)CS(=O)(=O)N[C@H](C)c1ccccc1 (stereo partly drawn) [1-45] | A (Mortality 100%) | A (Mortality 100%) | A (Mortality 100%) |
| CCN(CC)S(=O)(=O)CC(C)NC(=O)c1c(Br)cccc1C(=O)Nc1ccc(C(F)(C(F)(F)F)C(F)(F)F)cc1C (stereo not drawn) [1-214] | A (Mortality 100%) | A (Mortality 100%) | A (Mortality 100%) |

Reference: patent publication US7161032B2, “Sulfonamide derivatives, insecticides for agricultural and horticultural use, and usage thereof” (Nihon Nohyaku Co., Ltd., priority 2002, dated 2007)
